Patent publication US10793563B2, “GCN2 inhibitors and uses thereof” (Merck Patent GmbH, priority 2018, dated 2020)
Like-named read-outs stand apart in the source and are kept apart here.

Legend:
[1] = system: primary human pan T-cells; assay: Human IL-2 Assay for GCN2 Inhibition (IL-2 secretion from T cells in low amino acid condition); assay type: cell-based; settings: IL-2 secretion from human T cells stimulated with anti-CD3/CD28 in low amino acid condition, ELISA, read-out: IL2/T-cell EC50
Source text: Tumor microenvironment is profoundly immuno-suppressive. This may be attributed to the depletion of amino acids (like arginine and tryptophan) which triggers the activation of GCN2 in immune cells, including T cell and myeloid cells. In T cells, activation of GCN2 leads to reduce effector functions of CD8 T cells and induction and/or maintenance of immuno-suppressive T-regs. Inhibition of that immuno-suppressive response by GCN2 inhibitors enables an anti-cancer immune response by activating effector T-cells. Herein we describe an in-vitro system we established using human T-cells stimulated in low amino acid condition in order to engage the GCN2 biology. The method described involves the modulation of IL-2 levels secreted by human T cells in responses to the GCN2 inhibitors disclosed herein.
Amino acid-free RPMI was reconstituted with all but one of the amino acids found in standard RMPI (e.g. Arginine, Tryptophan), 10% charcoal-stripped fetal bovine serum, 100 Units/mL penicillin and 0.1 mg/mL streptomycin. Primary human pan T-cells were isolated using Pan T Cell Isolation Kit, human (MACS Miltenyi biotech Cat # Order no. 130-096-535) from apheresis cones and 5×104 pan T-cells per well. The purified T cells are seeded in Nunc™ 96-Well Polystyrene Round Bottom Microwell Plates (the cells are rested in No TRP media in a 15 ml falcon tube in the incubator for 30-45 minutes while titrations for tryptophan and the GCN2 inhibitor compound are made) A plate matrix was developed to titrate both a GCN2 inhibitor and the amino acid of interest ranging from “No Amino Acid” condition, up to the concentration found in the regular RPMI media (20 μM for TRP and 950 μM for Arginine). The cells were incubated for 30 min at 37° C. with the GCN2 inhibitor and then stimulated with 5×104 anti-CD3/CD28 Dynabeads® per well. After 96 hours of incubation the IL-2 level in the supernatant were measured using ELISA (R&D systems Cat # DY202 (Human IL-2 DuoSet ELISA). Data were plotted in GraphPad Prism software and EC50 is calculated.

[2] = target: intracellular GCN2 (phosphorylation of the GCN2 substrate eIF2α) (Homo sapiens (Human), UniProt Q9P2K8); assay: GCN2 Cellular Inhibition Assay (AlphaScreen SureFire P-eIF2α Ser51, borrelidin-treated U2OS cells); assay type: cell-based; settings: 10 μM borrelidin, 1 h, phosphorylated eIF2α Ser51, read-out: GCN2 Biomarker (IC50)
intracellular GCN2 (phosphorylation of the GCN2 substrate eIF2α), sequence (Q9P2K8 whole entry): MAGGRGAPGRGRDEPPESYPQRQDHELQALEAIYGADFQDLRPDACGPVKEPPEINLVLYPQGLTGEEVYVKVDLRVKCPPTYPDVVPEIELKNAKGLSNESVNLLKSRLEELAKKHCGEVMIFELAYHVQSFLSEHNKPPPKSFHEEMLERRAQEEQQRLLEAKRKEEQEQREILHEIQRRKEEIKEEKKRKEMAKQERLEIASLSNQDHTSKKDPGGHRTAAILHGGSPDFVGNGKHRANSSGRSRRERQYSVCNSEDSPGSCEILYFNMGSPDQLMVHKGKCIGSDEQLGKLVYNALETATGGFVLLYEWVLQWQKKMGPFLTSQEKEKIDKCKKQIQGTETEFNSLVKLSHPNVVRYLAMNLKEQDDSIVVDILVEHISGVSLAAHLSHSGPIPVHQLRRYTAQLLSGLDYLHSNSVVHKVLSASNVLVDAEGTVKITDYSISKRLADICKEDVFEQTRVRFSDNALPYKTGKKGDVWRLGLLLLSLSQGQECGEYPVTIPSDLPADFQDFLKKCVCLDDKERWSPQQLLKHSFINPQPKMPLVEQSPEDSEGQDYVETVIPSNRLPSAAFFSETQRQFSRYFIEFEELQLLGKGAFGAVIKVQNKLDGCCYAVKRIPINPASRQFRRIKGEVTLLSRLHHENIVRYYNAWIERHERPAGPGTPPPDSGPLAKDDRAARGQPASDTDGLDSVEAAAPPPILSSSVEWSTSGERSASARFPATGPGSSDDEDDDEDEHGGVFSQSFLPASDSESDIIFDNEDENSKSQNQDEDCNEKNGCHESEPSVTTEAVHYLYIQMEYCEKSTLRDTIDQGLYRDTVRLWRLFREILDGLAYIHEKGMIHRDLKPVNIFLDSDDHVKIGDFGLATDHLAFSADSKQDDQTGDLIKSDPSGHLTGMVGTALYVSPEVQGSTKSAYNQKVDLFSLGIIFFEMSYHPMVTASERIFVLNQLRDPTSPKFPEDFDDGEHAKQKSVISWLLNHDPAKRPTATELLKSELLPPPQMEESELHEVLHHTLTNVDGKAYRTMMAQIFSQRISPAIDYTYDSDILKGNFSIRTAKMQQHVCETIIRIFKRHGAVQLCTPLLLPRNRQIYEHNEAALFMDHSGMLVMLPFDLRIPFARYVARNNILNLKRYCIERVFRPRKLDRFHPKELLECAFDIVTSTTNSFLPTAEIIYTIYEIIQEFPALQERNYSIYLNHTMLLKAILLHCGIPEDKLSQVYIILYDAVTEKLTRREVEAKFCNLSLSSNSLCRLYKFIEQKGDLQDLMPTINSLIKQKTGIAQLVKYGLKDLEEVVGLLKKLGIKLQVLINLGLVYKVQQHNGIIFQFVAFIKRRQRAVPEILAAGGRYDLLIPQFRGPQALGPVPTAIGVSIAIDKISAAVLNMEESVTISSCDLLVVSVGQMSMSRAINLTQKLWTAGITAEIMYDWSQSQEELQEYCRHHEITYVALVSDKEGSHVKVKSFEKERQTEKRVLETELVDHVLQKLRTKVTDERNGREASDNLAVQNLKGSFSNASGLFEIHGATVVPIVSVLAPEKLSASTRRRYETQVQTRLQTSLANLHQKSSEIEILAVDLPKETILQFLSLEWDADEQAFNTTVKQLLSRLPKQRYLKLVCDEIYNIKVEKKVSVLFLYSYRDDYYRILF
Summary of the method: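 Phospho-eIF2α (Ser51) measured by AlphaScreen SureFire in lysates of U2OS cells stimulated 1 h at 37 °C with 10 μM borrelidin alongside compound, 4-fold dilutions from 40 μM. Inhibition expressed as percent relative to borrelidin-alone controls.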

[3] = target: GCN2 kinase (Homo sapiens (Human), UniProt Q9P2K8); assay: GCN2 Enzyme Inhibition Assay (Transcreener ADP2 fluorescence polarization); assay type: biochemical; settings: 280 μM ATP, 200 μM (RS)7 peptide, 4 nM GCN2, 25° C.
GCN2 kinase, sequence (Q9P2K8 whole entry): as above
Summary of the method: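 At 25 °C, GCN2 kinase (typical final concentration 4 nM) and (RS)7 peptide in Tris-HCl pH 7.5 buffer with MgCl2, NaCl and DTT were preincubated with compound for 10 min, then ATP was added for a 1 h reaction. ADP was read by FP with antibody/Alexa633 tracer. Non-linear tight-binding analysis gave IC50 and apparent Ki.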

SMILES | EC50 ([1]; Homo sapiens, T-cell, 96 h) [nM] | EC50 ([1]; 96 hours) [nM] | IC50 [2] [nM] | IC50 [3] [nM]
C[C@@H]1CN(c2ccnc(-c3cnc4ccc(Cl)cn34)n2)C[C@H](c2cn[nH]c2)O1 [I-566, (2R,6S)-4-(2-(6-chloroimidazo[1,2-a]pyridin-3-yl)pyrimidin-4-yl)-2-methyl-6-(1H-pyrazol-4-yl)morpholine] | < 100 | – | – | –
C[C@@H]1C[C@H](c2cn[nH]c2)CN(c2nccc(-c3cnc4ccc(C(F)(F)F)cn34)n2)C1 [I-136, 3-(2-((3R,5R)-3-Methyl-5-(1H-pyrazol-4-yl)piperidin-1-yl)pyrimidin-4-yl)-6-(trifluoromethyl)imidazo[1,2-a]pyridine] | < 100 | 100 to 500 | < 500 | –
C[C@@H]1CN(c2nccc(-c3cnc4ccc(C(F)(F)F)cn34)n2)C[C@H](c2cn[nH]c2)O1 [I-127, 3-{2-[(2R,6S)-2-Methyl-6-(1H-pyrazol-4-yl)-morpholin-4-yl]-pyrimidin-4-yl}-6-trifluoromethyl-imidazo[1,2-a]pyridine] | < 100 | – | < 500 | < 10
Cc1[nH]ncc1[C@@H]1CN(c2nccc(-c3cnc4ccc(Cl)cn34)n2)C[C@H](C)O1 [I-179, (2S,6R)-4-(4-(6-chloroimidazo[1,2-a]pyridin-3-yl)pyrimidin-2-yl)-2-methyl-6-(5-methyl-1H-pyrazol-4-yl)morpholine] | 100 to 500 | – | < 500 | < 10
CS(=O)(=O)C1CC(N2CCN(c3ccnc(-c4cnc5ccc(C(F)(F)F)cn45)n3)C[C@@H]2c2cn[nH]c2)C1 (stereo partly drawn) [I-495, 3-{4-[(S)-4-(3-Methanesulfonyl-cyclobutyl)-3-(1H-pyrazol-4-yl)-piperazin-1-yl]-pyrimidin-2-yl}-6-trifluoromethyl-imidazo[1,2-a]pyridine] | > 500 | – | < 500 | < 10
C[C@H]1CN(c2ccnc(-c3cnc4cc(F)c(Cl)cn34)n2)C[C@@H](c2cn[nH]c2)O1 [I-568, (2S,6R)-4-(2-(6-chloro-7-fluoroimidazo[1,2-a]pyridin-3-yl)pyrimidin-4-yl)-2-methyl-6-(1H-pyrazol-4-yl)morpholine] | 100 to 500 | – | – | –
C[C@@H]1C[C@@H](N=S(C)(C)=O)CN(c2ccnc(-c3cnc4ccc(C(F)F)cn34)n2)C1 [I-569, (((3R,5R)-1-(2-(6-(difluoromethyl)imidazo[1,2-a]pyridin-3-yl)pyrimidin-4-yl)-5-methylpiperidin-3-yl)imino)dimethyl-λ6-sulfanone] | 100 to 500 | – | – | –
Cc1[nH]ncc1[C@H]1CN(c2ccnc(-c3cnc4ccc(Cl)cn34)n2)C[C@@H](C)O1 [I-561, (2R,6S)-4-(2-(6-chloroimidazo[1,2-a]pyridin-3-yl)pyrimidin-4-yl)-2-methyl-6-(5-methyl-1H-pyrazol-4-yl)morpholine] | 100 to 500 | – | – | –
C[C@@H]1[C@H](C(N)=O)N(C2CC2)CCN1c1ccnc(-c2cnc3ccc(Cl)cn23)n1 [I-547, (2R,3R)-4-(2-(6-chloroimidazo[1,2-a]pyridin-3-yl)pyrimidin-4-yl)-1-cyclopropyl-3-methylpiperazine-2-carboxamide] | 100 to 500 | – | – | –
C[C@@H]1[C@H](c2cn[nH]c2)N(C2COC2)CCN1c1ccnc(-c2cnc3ccc(C(F)(F)F)cn23)n1 [I-565, 3-(4-((2R,3 S)-2-methyl-4-(oxetan-3-yl)-3-(1H-pyrazol-4-yl)piperazin-1-yl)pyrimidin-2-yl)-6-(trifluoromethyl)imidazo[1,2-a]pyridine] | < 100 | – | – | –
C[C@H]1[C@H](c2cn[nH]c2)N(CC2(C)COC2)CCN1c1ccnc(-c2cnc3ccc(C(F)(F)F)cn23)n1 [I-482, 3-(4-((2 S,3 S)-2-methyl-4-((3-methyloxetan-3-yl)methyl)-3-(1H-pyrazol-4-yl)piperazin-1-yl)pyrimidin-2-yl)-6-(trifluoromethyl)imidazo[1,2-a]pyridine] | > 500 | – | – | 10 to 100
C[C@@H]1C[C@@H](c2cn[nH]c2)CN(c2ccnc(-c3cnc4ccc(C(F)(F)F)cn34)n2)C1 [I-567, 3-(4-((3R,5S)-3-methyl-5-(1H-pyrazol-4-yl)piperidin-1-yl)pyrimidin-2-yl)-6-(trifluoromethyl)imidazo[1,2-a]pyridine] | < 100 | – | – | –
NC(=O)[C@H]1CCCN(c2ccnc(-c3cnc4cc(F)c(Cl)cn34)n2)C1 [I-558, (S)-1-(2-(6-chloro-7-fluoroimidazo[1,2-a]pyridin-3-yl)pyrimidin-4-yl)piperidine-3-carboxamide] | 100 to 500 | – | – | –
C[C@H]1CN(c2ccnc(-c3cnc4ccc(C(F)(F)F)cn34)n2)C[C@@H](C(N)=O)O1 [I-562, (2S,6S)-6-methyl-4-(2-(6-(trifluoromethyl)imidazo[1,2-a]pyridin-3-yl)pyrimidin-4-yl)morpholine-2-carboxamide] | 100 to 500 | – | – | –
C[C@@H]1CN(c2ccnc(-c3cnc4ccc(C(F)(F)F)cn34)n2)C[C@H](c2cn[nH]c2)O1 [I-564, (2R,6S)-2-methyl-6-(1H-pyrazol-4-yl)-4-(2-(6-(trifluoromethyl)imidazo[1,2-a]pyridin-3-yl)pyrimidin-4-yl)morpholine] | < 100 | – | – | –
Cc1n[nH]cc1C1CN(c2nccc(-c3cnc4ccc(Cl)cn34)n2)CC(C)O1 (stereo not drawn) [I-160, 4-(4-(6-chloroimidazo[1,2-a]pyridin-3-yl)pyrimidin-2-yl)-2-methyl-6-(3-methyl-1H-pyrazol-4-yl)morpholine] | 100 to 500 | – | – | < 10
C[C@H]1C[C@@H](c2cn[nH]c2)CN(c2nccc(-c3cnc4ccc(C(F)(F)F)cn34)n2)C1 [I-137, 3-(2-((3S,5S)-3-Methyl-5-(1H-pyrazol-4-yl)piperidin-1-yl)pyrimidin-4-yl)-6-(trifluoromethyl)imidazo[1,2-a]pyridine] | 100 to 500 | – | < 500 | –
Cc1[nH]ncc1[C@@H]1CN(c2nccc(-c3cnc4ccc(C(F)(F)F)cn34)n2)C[C@H](C)O1 [I-116] | < 100 | – | 500 to 5000 | –
C[C@@H]1C[C@@H](c2cn[nH]c2)CN(c2ccnc(-c3cnc4ccc(Cl)cn34)n2)C1 [I-559, 6-chloro-3-(4-((3R,5S)-3-methyl-5-(1H-pyrazol-4-yl)piperidin-1-yl)pyrimidin-2-yl)imidazo[1,2-a]pyridine] | < 100 | – | – | –
C[C@@H]1C[C@H](N=S(C)(C)=O)CN(c2ccnc(-c3cnc4cc(F)c(Br)cn34)n2)C1 [I-317, (((3 S,5R)-1-(2-(6-bromo-7-fluoroimidazo[1,2-a]pyridin-3-yl)pyrimidin-4-yl)-5-methylpiperidin-3-yl)imino)dimethyl-λ6-sulfanone] | – | – | 500 to 5000 | 10 to 100
NC(=O)[C@H]1CCCN(c2nccc(-c3cnc4ccc(Cl)cn34)n2)C1 [I-183, (S)-1-(4-(6-chloroimidazo[1,2-a]pyridin-3-yl)pyrimidin-2-yl)piperidine-3-carboxamide] | – | – | < 500 | 10 to 100
C[C@H]1CN(c2ccnc(-c3cnc4ccc(Cl)cn34)n2)[C@@H](C)[C@@H](c2cn[nH]c2)N1 [I-563, 6-chloro-3-(4-((2S,3R,5S)-2,5-dimethyl-3-(1H-pyrazol-4-yl)piperazin-1-yl)pyrimidin-2-yl)imidazo[1,2-a]pyridine] | 100 to 500 | – | – | –
CC(C)(C)c1ncc(CN2CCN(c3ccnc(-c4cnc5ccc(C(F)(F)F)cn45)n3)CC2c2cn[nH]c2)[nH]1 (stereo not drawn) [I-373, 3-(4-(4-((2-(tert-butyl)-1H-imidazol-5-yl)methyl)-3-(1H-pyrazol-4-yl)piperazin-1-yl)pyrimidin-2-yl)-6-(trifluoromethyl)imidazo[1,2-a]pyridine] | – | – | < 500 | < 10
O=C(c1cocn1)N1CCN(c2ccnc(-c3cnc4ccc(C(F)(F)F)cn34)n2)CC1c1cn[nH]c1 (stereo not drawn) [I-443, (2-(1H-pyrazol-4-yl)-4-(2-(6-(trifluoromethyl)imidazo[1,2-a]pyridin-3-yl)pyrimidin-4-yl)piperazin-1-yl)(oxazol-4-yl)methanone] | – | – | 500 to 5000 | 10 to 100
C[C@@H]1[C@H](c2cn[nH]c2)NCCN1c1ccnc(-c2cnc3ccc(C(F)(F)F)cn23)n1 [I-537, 4-[(2R,3 S)-2-methyl-3-(1H-pyrazol-4-yl)piperazin-1-yl]-2-[6-(trifluoromethyl)imidazo[1,2-a]pyridin-3-yl]pyrimidine] | – | – | < 500 | < 10
